Experimental data reported in paper PMC9586930, “Molecular insights into the distinct signaling duration for the peptide-induced PTH1R activation” (Nature Communications, 2022).
Changes are numbered by the printed parent chain.

Key:
PTH1R K360A mutant = target: T1, PTH1R K360A mutant (Homo sapiens, UniProt Q03431, K360A); assay: cAMP accumulation assay (GloSensor), PTH1R K360A; type: cell-based; conditions: for ΔpEC50±SEM: relative to WT, n = 3 in triplicate; for ΔpEC50±SEM / Span±SEM: mean ± SEM; for Span±SEM: window between maximal response (Emax) and vehicle, n = 3
T1 construct: a flag-tag was fused to the N terminal of full-length PTH1R (WT or mutant); expressed in transfected cells; host or cells: HEK293T
T1 sequence (Q03431 27-593 K360A): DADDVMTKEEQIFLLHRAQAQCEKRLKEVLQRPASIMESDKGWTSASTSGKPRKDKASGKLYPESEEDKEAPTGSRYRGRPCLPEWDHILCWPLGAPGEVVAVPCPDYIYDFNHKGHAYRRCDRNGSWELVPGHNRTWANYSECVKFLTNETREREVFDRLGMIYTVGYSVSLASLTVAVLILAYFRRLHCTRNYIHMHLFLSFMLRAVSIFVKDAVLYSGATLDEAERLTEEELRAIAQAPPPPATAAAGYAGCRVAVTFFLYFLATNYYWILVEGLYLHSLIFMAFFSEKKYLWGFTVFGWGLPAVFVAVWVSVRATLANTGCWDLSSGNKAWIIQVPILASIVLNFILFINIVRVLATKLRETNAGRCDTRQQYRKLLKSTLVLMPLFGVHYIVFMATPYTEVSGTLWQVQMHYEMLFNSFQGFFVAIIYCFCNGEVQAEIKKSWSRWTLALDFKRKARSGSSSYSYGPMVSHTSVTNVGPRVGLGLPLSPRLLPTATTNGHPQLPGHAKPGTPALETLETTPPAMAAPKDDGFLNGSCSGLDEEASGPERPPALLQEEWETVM
Protocol: (§1) Human embryonic kidney 293 T (HEK293T, ATCC: CRL-1573) cells were transfected with a plasmid mixture consisting of pcDNA3.1-flag-PTH1R (WT or mutants) and the cAMP biosensor GloSensor-22F (Promega) at a ratio of 2:1 (see Supplementary Table 7 for a list of primers used in this study). After 24 h, transfected cells were plated onto a 384-well plate, which was treated with cell adherent reagent (Applygen) in advance. After another 12 h, cells were treated with Hank’s balanced salt solution for starvation and then incubated in CO2-independent media containing 4% GloSensor cAMP Reagent (Promega) at a volume of 5 μl per well and incubated for 20 min at RT before measurements for baseline luminescence (Spark Multimode microplate reader, TECAN). Next, test ligands were added at different concentrations from 10^−6 to 10^−13 M before second measurement. Finally, data were normalized to 100% of the maximal PTH (1-34) response for WT PTH1R using a sigmoidal dose-response in GraphPad Prism.
(§2) Statistical analyses were performed on at least three individual datasets and analysed using GraphPad Prism software. Bars represent differences in the calculated agonist potency (pEC50) and maximum agonist response (Emax) for each mutant relative to the WT receptor. Data are mean± s.e.m. from at least three independent experiments, performed in triplicates. ns, not significant, ^nsP > 0.01; ^*P < 0.01; ^**P < 0.001; ^***P < 0.0001 (one-way analysis of variance (ANOVA) followed by Dunnett’s test, compared with the response of the WT). For dose-response experiments, data were normalized and analyzed using nonlinear curve fitting for the log (agonist) versus response (three parameters) curves.

PTH1R I363A mutant = target: T2, PTH1R I363A mutant (Homo sapiens, UniProt Q03431, I363A); assay: cAMP accumulation assay (GloSensor), PTH1R I363A; type: cell-based; conditions: for ΔpEC50±SEM: relative to WT, n = 3 in triplicate; for ΔpEC50±SEM / Span±SEM: mean ± SEM; for Span±SEM: window between maximal response (Emax) and vehicle, n = 3
T2 construct: a flag-tag was fused to the N terminal of full-length PTH1R (WT or mutant); expressed in transfected cells; host or cells: HEK293T
T2 sequence (Q03431 27-593 I363A): T1 sequence (Q03431 27-593 K360A) with A334K, I337A
Protocol: as §1, §2

span (from the WT) (PTH1R K360A mutant; PTH1R K3605.36A, replicate 1)	ΔpEC50 (from the WT) (PTH1R K360A mutant; PTH1R K3605.36A, replicate 1)	span (from the WT) (PTH1R K360A mutant; PTH1R K3605.36A, replicate 2)	ΔpEC50 (from the WT) (PTH1R K360A mutant; PTH1R K3605.36A, replicate 2)	span (from the WT) (PTH1R K360A mutant; PTH1R K3605.36A, replicate 3)	ΔpEC50 (from the WT) (PTH1R K360A mutant; PTH1R K3605.36A, replicate 3)	ΔpEC50±SEM (PTH1R K360A mutant)	ΔpEC50 (from the WT) (PTH1R K360A mutant; replicate 1)	ΔpEC50 (from the WT) (PTH1R K360A mutant; replicate 2)	ΔpEC50 (from the WT) (PTH1R K360A mutant; replicate 3)	Span±SEM (PTH1R K360A mutant)	span (from the WT) (PTH1R I363A mutant; PTH1R I3635.39A, replicate 1)	ΔpEC50 (from the WT) (PTH1R I363A mutant; PTH1R I3635.39A, replicate 1)	span (from the WT) (PTH1R I363A mutant; PTH1R I3635.39A, replicate 2)	ΔpEC50 (from the WT) (PTH1R I363A mutant; PTH1R I3635.39A, replicate 2)	span (from the WT) (PTH1R I363A mutant; PTH1R I3635.39A, replicate 3)	ΔpEC50±SEM (PTH1R I363A mutant)	ΔpEC50 (from the WT) (PTH1R I363A mutant; replicate 1)	ΔpEC50 (from the WT) (PTH1R I363A mutant; replicate 2)	ΔpEC50 (from the WT) (PTH1R I363A mutant; replicate 3)	Substance	other results
126.5	0.012	121.9	0.001	153.1	-0.25	-0.08±0.09	0.012	0.001	-0.25	133.83±9.72	94.78	-0.24	139.7	-0.23	119.7	-0.05±0.19	-0.24	-0.23	0.32	H-AVAEIQLMHQRAKWIQDARRRAFLHKLIAEIHTAEI-OH [LA-PTH, long-acting PTH analog, modified PTH/PTHrP hybrid]	Span±SEM (PTH1R I363A mutant): 118.06±12.99
136.9	0.02	137.1	-0.139	183.3	-0.31	-0.14±0.10	0.02	-0.139	-0.31	135.06±20.89	93.29	-0.207	156.2	-0.352	155.7	-0.28±0.04	-0.207	-0.352	-0.276	H-SVSEIQLMHNLGKHLNSMERVEWLRKKLQDVHNF-OH [PTH, Teriparatide, human PTH 1-34, long-acting peptide agonist of PTH1R]	ΔpEC50 (from the WT) (PTH1R I363A mutant; PTH1R I3635.39A, replicate 3): -0.276; Span±SEM (PTH1R I363A mutant): 180.23±7.67

Substance	span (from the WT) (PTH1R K360A mutant; PTH1R K3605.36A, replicate 1)	ΔpEC50 (from the WT) (PTH1R K360A mutant; PTH1R K3605.36A, replicate 1)	span (from the WT) (PTH1R K360A mutant; PTH1R K3605.36A, replicate 2)	ΔpEC50 (from the WT) (PTH1R K360A mutant; PTH1R K3605.36A, replicate 2)	span (from the WT) (PTH1R K360A mutant; PTH1R K3605.36A, replicate 3)	ΔpEC50 (from the WT) (PTH1R K360A mutant; PTH1R K3605.36A, replicate 3)	ΔpEC50±SEM (PTH1R K360A mutant)	ΔpEC50 (from the WT) (PTH1R K360A mutant; replicate 1)	ΔpEC50 (from the WT) (PTH1R K360A mutant; replicate 2)	ΔpEC50 (from the WT) (PTH1R K360A mutant; replicate 3)	Span±SEM (PTH1R K360A mutant)	span (from the WT) (PTH1R I363A mutant; PTH1R I3635.39A, replicate 1)	ΔpEC50 (from the WT) (PTH1R I363A mutant; PTH1R I3635.39A, replicate 1)	span (from the WT) (PTH1R I363A mutant; PTH1R I3635.39A, replicate 2)	ΔpEC50 (from the WT) (PTH1R I363A mutant; PTH1R I3635.39A, replicate 2)	span (from the WT) (PTH1R I363A mutant; PTH1R I3635.39A, replicate 3)	ΔpEC50±SEM (PTH1R I363A mutant)	ΔpEC50 (from the WT) (PTH1R I363A mutant; replicate 1)	ΔpEC50 (from the WT) (PTH1R I363A mutant; replicate 2)	ΔpEC50 (from the WT) (PTH1R I363A mutant; replicate 3)	other results
H-AVSEHQLLHDKGKSIQDLRRRELLEKLL-{Aib}-KLHTA-NH2 [ABL, Abaloparatide, an analog of PTHrP, short-acting PTH1R agonist]	125.1	-1.039	150.8	-1.216	115	-1.137	-1.13±0.05	-1.039	-1.216	-1.137	130.30±10.66	145.9	-0.54	170	-0.46	139.9	-0.57±0.08	-0.54	-0.46	-0.722	ΔpEC50 (from the WT) (PTH1R I363A mutant; PTH1R I3635.39A, replicate 3): -0.722; Span±SEM (PTH1R I363A mutant): 151.93±9.20
